Data: patent US20250170090A1, “METHOD FOR PREVENTING OR TREATING DISEASE OR DISORDER ASSOCIATED WITH ANTINEOPLASTIC AGENT” (ONQUALITY PHARMACEUTICALS CHINA LTD., priority 2022, published 2025)
Read-outs that look alike come from different tables or passages of the source.

System: HUVEC cells
Experiment: CCK-8 cell viability: alleviation of proliferative toxicity of anti-tumor agents on HUVEC cells (Tables 7-1, 7-2)
Assay type: cell-based
Details: for activation at 100 µM: Homo sapiens, 24 h, percentage increase in viable cells vs anti-tumor agent alone, read-out: Response rate % (average)
Method: The cultured HUVEC cells were digested the suspended, counted, and seed into a 96-well plate with 5,000-10,000 cells per well. The wells are divided into the following groups: blank control group, anti-tumor agent group, anti-tumor agent+NO-NSAID group, anti-tumor agent solvent group, NO-NSAID control group. Wherein each well of each group contained a basic medium, and the final liquid volume contained in each well was about 100 μL. The grouping situation was as follows: • 1) Blank control group: no solution was added except normally replacing the medium; • 2) Anti-tumor agent group: added the anti-tumor agent solution (the final concentration was shown in Table 7-1 and Table 7-2, the solvent of the anti-tumor agent solution was DMSO); • 3) Anti-tumor agent+NO-NSAID group: added the anti-tumor agent solution and the NO-NSAID solution (the final concentrations of anti-tumor agent and NO-NSAID were shown in Table 7-1 and Table 7-2, and according to the solubility of NO-NSAID, the solvent of NO-NSAID solution was selected as ethanol or sterile water, and minor volume differences in each group were adjusted by added the corresponding solvent); • 4) Anti-tumor agent solvent group: an equal volume of DMSO as contained in the corresponding anti-tumor agent solution in Group 2) was added; • 5) NO-NSAID control group: the same volume and type of solvent (for example, ethanol or sterile water) corresponding to the NO-NSAID contained in group 3) was added.
The anti-tumor agent solvent group was not involved in data processing and was only used as a reference for evaluating experimental system error. The NO-NSAID solvent control group was used for data correction to eliminate the influence of the solvent on the results.
After culturing for 24-48 hours, the Cell Counting Kit-8 (CCK-8) detection kit (C0037, Shanghai Beyotime Biotechnology Co., Ltd., Beyotime Biotechnology) was used to determine the cell viability. This allows for the calculation of the proliferative toxicity of anti-tumor agent on cell and the mitigating effect of NO-NSAID on proliferative toxicity. The results were statistically analyzed and plotted using GraphPad Prism 6.0 software and t test.

[1] = Infigratinib (15 μM), NO-NSAID 100 μM
[2] = Lapatinib (5 μM), NO-NSAID 100 μM
[3] = Lenvatinib (10 μM), NO-NSAID 100 μM
[4] = Olmutinib (10 μM), NO-NSAID 100 μM
[5] = Regorafenib (5 μM), NO-NSAID 100 μM
[6] = Selumetinib (5 μM), NO-NSAID 100 μM
[7] = Sorafenib (5 μM), NO-NSAID 100 μM
[8] = Sunitinib (5 μM), NO-NSAID 100 μM

## CC(=O)Oc1ccccc1C(=O)Oc1cccc(CO[N+](=O)[O-])c1 [Compound A2]
Encorafenib (5 μM), NO-NSAID 100 μM
  activation at 100 µM: 76%
Erdafitinib (10 μM), NO-NSAID 100 μM
  activation at 100 µM: 49%
Everolimus (5 μM), NO-NSAID 100 μM
  activation at 100 µM: 33%
Famitinib (5 μM), NO-NSAID 100 μM
  activation at 100 µM: 31%
Fruquintinib (10 μM), NO-NSAID 100 μM
  activation at 100 µM: 41%
Gefitinib (10 μM), NO-NSAID 100 μM
  activation at 100 µM: 76%
[1]
  activation at 100 µM: 73%
  NO-NSAID response rate % (average): 73%
[2]
  activation at 100 µM: 16%
  NO-NSAID response rate % (average): 16%
[3]
  activation at 100 µM: 34%
  NO-NSAID response rate % (average): 34%
[4]
  activation at 100 µM: 33%
  NO-NSAID response rate % (average): 33%
[5]
  activation at 100 µM: 50%
  NO-NSAID response rate % (average): 50%
[6]
  activation at 100 µM: 83%
  NO-NSAID response rate % (average): 83%
[7]
  activation at 100 µM: 56%
  NO-NSAID response rate % (average): 56%
[8]
  activation at 100 µM: 65%
  NO-NSAID response rate % (average): 65%
Vemurafenib (5 μM), NO-NSAID 100 μM
  activation at 100 µM: 54%
Infigratinib (15 μM), NO-NSAID 0.1 μM
  NO-NSAID response rate % (average): 30%
Infigratinib (15 μM), NO-NSAID 1 μM
  NO-NSAID response rate % (average): 18%
Infigratinib (15 μM), NO-NSAID 500 μM
  NO-NSAID response rate % (average): 17%
Lapatinib (5 μM), NO-NSAID 0.1 μM
  NO-NSAID response rate % (average): 14%
Lapatinib (5 μM), NO-NSAID 1 μM
  NO-NSAID response rate % (average): 32%
Lapatinib (5 μM), NO-NSAID 500 μM
  NO-NSAID response rate % (average): 20%
Lenvatinib (10 μM), NO-NSAID 0.1 μM
  NO-NSAID response rate % (average): 25%
Lenvatinib (10 μM), NO-NSAID 1 μM
  NO-NSAID response rate % (average): 24%
Lenvatinib (10 μM), NO-NSAID 500 μM
  NO-NSAID response rate % (average): 31%
Olmutinib (10 μM), NO-NSAID 0.1 μM
  NO-NSAID response rate % (average): 24%
Olmutinib (10 μM), NO-NSAID 1 μM
  NO-NSAID response rate % (average): 24%
Olmutinib (10 μM), NO-NSAID 500 μM
  NO-NSAID response rate % (average): 23%
Regorafenib (5 μM), NO-NSAID 0.1 μM
  NO-NSAID response rate % (average): 32%
Regorafenib (5 μM), NO-NSAID 1 μM
  NO-NSAID response rate % (average): 30%
Regorafenib (5 μM), NO-NSAID 500 μM
  NO-NSAID response rate % (average): 36%
Selumetinib (5 μM), NO-NSAID 0.1 μM
  NO-NSAID response rate % (average): 34%
Selumetinib (5 μM), NO-NSAID 1 μM
  NO-NSAID response rate % (average): 48%
Selumetinib (5 μM), NO-NSAID 500 μM
  NO-NSAID response rate % (average): 30%
Sorafenib (5 μM), NO-NSAID 0.1 μM
  NO-NSAID response rate % (average): 5%
Sorafenib (5 μM), NO-NSAID 1 μM
  NO-NSAID response rate % (average): 20%
Sorafenib (5 μM), NO-NSAID 500 μM
  NO-NSAID response rate % (average): 17%
Sunitinib (5 μM), NO-NSAID 0.1 μM
  NO-NSAID response rate % (average): 13%
Sunitinib (5 μM), NO-NSAID 1 μM
  NO-NSAID response rate % (average): 7%
Sunitinib (5 μM), NO-NSAID 500 μM
  NO-NSAID response rate % (average): 2%
